According to patent publication US20040171688A1, “Carboxylic acids and derivatives thereof and pharmaceutical compositions containing them” (priority 1997, published 2004):

Assays:
[1] = molecular target: T1, HNF-4α (Rattus norvegicus, UniProt P22449); assay: Transfection assay: COS-7 cells cotransfected with (C3P)3-TK-CAT reporter and pSG5-HNF-4α; assay type: cell-based; design: expressed in transfected cells; host or cells: COS-7; conditions: for EC50: proligands added to culture medium of COS-7 cells (FIG. 4b), read-out: EC50 of HNF-4α suppression (CAT activity); for inhibition of HNF-4α transcriptional activity, effectiveness in words: transfection assays, added to culture medium; for effect on HNF-4α dependent transcription (CAT activity): free fatty acids added to culture medium of COS-7 cells (FIG. 4a)
T1 sequence (P22449 1-464 isoform P22449-2): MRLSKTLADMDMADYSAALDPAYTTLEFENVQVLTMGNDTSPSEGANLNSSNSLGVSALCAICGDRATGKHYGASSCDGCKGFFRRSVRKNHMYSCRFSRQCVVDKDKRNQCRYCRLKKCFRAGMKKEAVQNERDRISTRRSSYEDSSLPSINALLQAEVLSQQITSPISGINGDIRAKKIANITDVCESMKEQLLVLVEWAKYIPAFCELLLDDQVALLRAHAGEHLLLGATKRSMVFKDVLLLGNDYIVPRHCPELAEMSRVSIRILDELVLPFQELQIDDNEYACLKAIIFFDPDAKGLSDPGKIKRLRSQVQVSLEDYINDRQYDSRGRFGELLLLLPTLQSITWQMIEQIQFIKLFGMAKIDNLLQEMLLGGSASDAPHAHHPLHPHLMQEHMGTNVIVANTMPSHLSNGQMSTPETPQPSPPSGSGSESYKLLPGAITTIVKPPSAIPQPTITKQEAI
Method: a. […] Fold induction of CAT activity by transfected HNF-4I is determined by evaluating CAT activity in the presence of pSG5-HNF-4I as compared with pSG5 plasmid and as function of respective fatty acids added to the culture medium as indicated. The figure summarizes 3-4 independent experiments for each fatty acid. Mean ± S.E.
b. […] Fold induction refers to CAT activity in cells incubated with 3,3,12,12-tetramethyl-tetradecanedioic acid (∘), 3,3,14,14-tetramethyl-hexadecanedioic acid (□) and 3,3,16,16-tetramethyl-octadecanedioic acid (Δ) proligands normalized to the activity in cells incubated in the absence of added proligands.
COS-7 cells cotransfected for 6 h with the (C3P)3-TK-CAT reporter plasmid (5 μg) and with either the pSG5-HNF-4α expression plasmid ([…]) or the pSG5 plasmid (0.025 μg) added by calcium phosphate precipitation were cultured in serum free medium with fatty acids (complexed with albumin in a molar ratio of 6:1) added as indicated. β-Galactosidase expression vector pRSGAL (1 μg) added to each precipitate served as an internal control for transfection. The (C3P)3-TK-CAT construct was prepared by inserting a synthetic oligonucleotide encompassing the (−87/−66) Apo CIII promoter sequence (5′-[…]-3′) flanked by HindIII restriction site into pBLCAT2^47 upstream of the −105 bp thymidine kinase promoter. The construct containing three copies of the synthetic oligonucleotide in the direct orientation was selected and confirmed by sequencing.
The intracellular effect of HNF-4α ligands on HNF-4α mediated transcription was evaluated in COS-7 cells cotransfected with an expression vector for HNF-4α and with a CAT reporter plasmid driven by a thymidine kinase promoter and enhanced by one to three C3P copies of the apo CIII gene promoter. Transfected cells were incubated in the presence of free fatty acids and xenobiotic amphipathic carboxylates representing agonistic or antagonistic HNF-4α proligands.

[2] = molecular target: T2, HNF-4α (Rattus norvegicus, UniProt P22449); assay: Ligand binding assay with [3H]palmitoyl(16:0)-CoA on recombinant GST-HNF-4α(LBD) or His-HNF-4α
T2 construct: GST-HNF-4α(LBD) fusion protein consisting of amino acids 96-455 of wild type HNF-4α fused to GST; fused on or other part: Glutathione-S-transferase (GST) at the N-terminus of the LBD construct; 6-histidine tag on the full-length construct
T2 sequence (P22449 105-464 isoform P22449-2 limits assumed): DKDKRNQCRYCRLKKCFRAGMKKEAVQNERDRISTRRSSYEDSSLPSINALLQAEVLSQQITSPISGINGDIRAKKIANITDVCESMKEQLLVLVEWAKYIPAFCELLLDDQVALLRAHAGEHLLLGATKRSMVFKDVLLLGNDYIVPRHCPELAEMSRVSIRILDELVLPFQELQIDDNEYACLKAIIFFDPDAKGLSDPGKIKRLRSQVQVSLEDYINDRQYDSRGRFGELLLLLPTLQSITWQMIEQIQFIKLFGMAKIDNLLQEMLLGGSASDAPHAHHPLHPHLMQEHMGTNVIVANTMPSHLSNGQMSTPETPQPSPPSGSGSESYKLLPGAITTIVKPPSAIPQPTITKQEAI
Method: a. […] The respective recombinant proteins are incubated to equilibrium with [^3H]palmitoyl(16:0)-CoA (0.05 μCi) and with increasing nonlabeled palmitoyl(16:0)-CoA as indicated.
b. […] The respective recombinant proteins are incubated with 8 nM of [^3H]palmitoyl(16:0)-CoA (60 Ci/mmol) and with increasing nonlabeled myristoyl(14:0)-CoA as indicated. Percent bound refers to radiolabeled [^3H]palmitoyl(16:0)-CoA in the bound fraction. […] Percent bound refers to radiolabeled [^3H]palmitoyl(16:0)-CoA in the bound fraction.
Rat HNF-4α1 cDNA(pLEN4S)^1 was subcloned into the glutathione-S-transferase (GST) encoding pGEX-2T plasmid (Pharmacia) and the resultant plasmid was cleaved with smaI and AccI and religated to yield the GST-HNF-4α(LBD) fusion plasmid. […] The full length HNF-4α1 cDNA cloned into 6His-pET11d vector was expressed in E.coli BL21 (DE3)plysS.
Recombinant GST-HNF-4α(LBD) (100 pmol) or His-HNF-4α (100 pmol) were incubated for 60 min at 22° C. with [^3H]palmitoyl(16:0)-CoA (American RadiolabeledChemicals) in 100 μl of 10 mM phosphate buffer (pH 7.4). Competitor ligands or solvent carrier were added as indicated. Free and HNF-4α bound ^3[H]palmitoyl(16:0)-CoA were separated by […] and bound ligand was quantified by liquid scintillation counting. Nonspecific binding of [^3H]palmitoyl(16:0)-CoA was determined by its binding to the GST moiety or to carbonic anhydrase as nonrelevant protein.
Binding was exemplified with either the ligand binding domain of HNF-4α fused to glutathione-s-transferase (GST-HNF-4α(LBD)) or the full length HNF-4α protein tagged by 6 histidines (His-HNF-4α).

[3] = competition with 8 nM [3H]palmitoyl(16:0)-CoA, GST-HNF-4α(LBD) or His-HNF-4α, read-out: EC50 (50% specific competition)

| EC50 [1] [µM] | inhibition of HNF-4α transcriptional activity, effectiveness in words [1] | SMILES | also measured |
| --- | --- | --- | --- |
| 230 |  | CC(C)(CCCCCCCCCCC(C)(C)C(=O)O)C(=O)O [2,2,13,13-tetramethyl-tetradecane dioic acid] |  |
| 150 | Highly effective | CC(C)(CCCCCCCCCCCCC(C)(C)C(=O)O)C(=O)O [2,2,15,15-tetramethyl-hexadecane dioic acid] |  |
| 150 | Highly effective | CC(C)(CCCCCCCCCCCCCCC(C)(C)C(=O)O)C(=O)O [2,2,17,17-tetramethyl-octadecane dioic acid] |  |
| > 300 |  | CC(C)(CCCCCCCCC(C)(C)CC(=O)O)CC(=O)O [3,3,12,12-tetramethyl-tetradecanedioic acid] | EC50 [2, 3]: 40 µM |
| 155 | Highly effective | CC(C)(CCCCCCCCCCC(C)(C)CC(=O)O)CC(=O)O [3,3,14,14-tetramethyl-hexadecanedioic acid] | EC50 [2, 3]: 8 µM |
| 150 | Highly effective | CC(C)(CCCCCCCCCCCCC(C)(C)CC(=O)O)CC(=O)O [3,3,16,16-tetramethyl-octadecanedioic acid] | EC50 [2, 3]: 8 µM |
| 150 | Highly effective | CC(C)(CCCCCCCCC(C)(C)CCC(=O)O)CCC(=O)O [4,4,13,13-tetramethyl-hexadecane dioic acid] |  |
| 150 | Highly effective | CC(C)(CCCCCCCCCCC(C)(C)CCC(=O)O)CCC(=O)O [4,4,15,15-tetramethyl-octadecane dioic acid] |  |
|  | effective | CC(C)(CCCCCCCCCCCCCCO)C(=O)O [16-hydroxy-2,2-dimethyl-hexadecanoic acid] |  |
|  | effective | CC(C)(CCCCCCCCCCCCCO)CC(=O)O [16-hydroxy-3,3-dimethyl-hexadecanoic acid] |  |
|  | effective | CC(C)(CCCCCCCCCCCCO)CCC(=O)O [16-hydroxy-4,4-dimethyl-hexadecanoic acid] |  |
|  | effective | CC(C)(CCCCCCCCCCCCCCCCO)C(=O)O [18-hydroxy-2,2-dimethyl-octadecanoic acid] |  |
|  | effective | CC(C)(CCCCCCCCCCCCCCO)CCC(=O)O [18-hydroxy-4,4-dimethyl-octadecanoic acid] |  |
|  | effective | O=C(O)CCCCCCCCCCCCCCCCCO [18-hydroxy-octadecanoic acid] |  |
| 260 |  | CC(C)(Oc1ccc(CCNC(=O)c2ccc(Cl)cc2)cc1)C(=O)O [Bezafibrate, reference compound] | EC50 [2]: 90 µM |
|  |  | CCCCCCCCCCCC(=O)SCCNC(=O)CCNC(=O)[C@H](O)C(C)(C)COP(=O)(O)OP(=O)(O)OC[C@H]1O[C@@H](n2cnc3c(N)ncnc32)[C@H](O)[C@@H]1OP(=O)(O)O [Dodecanoyl(12:0)-CoA, reference compound] | EC50 [2, 3]: 2.3 µM |
|  |  | CC(C)Cc1ccc(C(C)C(=O)O)cc1 (centres unmarked) [Ibuprofen, reference compound] | EC50 [2, 3]: 40 µM |
| 130 |  | COc1ccc2c(c1)c(CC(=O)O)c(C)n2C(=O)c1ccc(Cl)cc1 [Indomethacine, reference compound] |  |
|  |  | CCCCC/C=C\C/C=C\CCCCCCCC(=O)SCCNC(=O)CCNC(=O)[C@H](O)C(C)(C)COP(=O)(O)OP(=O)(O)OC[C@H]1O[C@@H](n2cnc3c(N)ncnc32)[C@H](O)[C@@H]1OP(=O)(O)O [Linoleoyl(18:2)-CoA] | EC50 [2, 3]: 1.9 µM |
| 160 |  | CC(C)(Oc1ccc(C2CCCc3ccccc32)cc1)C(=O)O (centres unmarked) [Nafenopin, reference compound] | EC50 [2, 3]: 90 µM |
|  |  | CCCCCCCC/C=C\CCCCCCCC(=O)SCCNC(=O)CCNC(=O)[C@H](O)C(C)(C)COP(=O)(O)OP(=O)(O)OC[C@H]1O[C@@H](n2cnc3c(N)ncnc32)[C@H](O)[C@@H]1OP(=O)(O)O [Oleoyl(18:1)-CoA] | EC50 [2, 3]: 1.4 µM |
|  |  | CC/C=C\C/C=C\C/C=C\C/C=C\C/C=C\CCCC(=O)O [eicosapentaenoic(20:5) acids, eicosapentaenoic(20:5) acid] | effect on HNF-4α dependent transcription (CAT activity) [1]: suppressive |
|  |  | CC(C)(COP(=O)(O)OP(=O)(O)OC[C@H]1O[C@@H](n2cnc3c(N)ncnc32)[C@H](O)[C@@H]1OP(=O)(O)O)[C@@H](O)C(=O)NCCC(=O)NCCS [free CoA] | binding to HNF-4α (in words) ([2]; GST-HNF-4α(LBD) or His-HNF-4α): inactive |
|  |  | CCCCCCCCCCCCCCCC(=O)O [palmitic(16:0) acid] | effect on HNF-4α dependent transcription (CAT activity) [1]: dose dependent activation |
|  |  | CC/C=C\C/C=C\C/C=C\CCCCCCCC(=O)O [α-linolenic(18:3), α-linolenic(18:3) acid] | effect on HNF-4α dependent transcription (CAT activity) [1]: suppressive |

| SMILES | EC50 [1] [µM] | inhibition of HNF-4α transcriptional activity, effectiveness in words [1] | also measured |
| --- | --- | --- | --- |
| O=C(O)CCCCCCCCCCCCCCCO [16-hydroxy-hexadecanoic acid] |  | effective |  |
| CC(C)(CCCCCCCCCCCCCCCO)CC(=O)O [18-hydroxy-3,3-dimethyl-octa-decanoic acid] |  | effective |  |
